In patent publication US9131722B2, “Composition comprising the extract of Actinidia arguta and related species for the prevention and treatment of allergic disease and non-allergic inflammatory disease” (VIROMED CO., LTD., priority 2002, dated 2015):

Key:
[1] = test system: mice peritoneal mast cells; assay: Inhibition of histamine release from mice peritoneal mast cells; type: cell-based; details: Mus musculus, Mast cell, 0.5 h; anti-DNP24-BSA IgE sensitized, DNP24-BSA 20 ng/ml 30 min; extract 100 μg/ml, Cromolyn 10^−4 M
Experimental: Each mouse was anesthetized with ether, and injected with 20 ml of Tyrode buffer B (NaCl, glucose, NaHCO3, KCl, NaH2PO4) containing 0.1% gelatin into the peritoneal cavity; then the abdomen was gently massaged for about 90 seconds. The peritoneal cavity was carefully opened, and the fluid containing peritoneal cells was aspirated by pasteur pipette. The peritoneal cells were then sedimented at 150×g for 10 min. at room temperature and resuspended in Tyrode buffer B. Mast cells were separated from the major components of rat peritoneal cells as described in the literature (Yurt et al., J Exp Med., 1; 146(5), pp 1405-19, 1977). Peritoneal cells suspended in 1 ml of Tyrode buffer B were layered onto 2 ml of 0.225 g/ml metrizamide (density 1.120 g/ml) and centrifuged at room temperature for 15 min at 400×g. […] Mast cells were stimulated with 20 ng/ml of DNP24-BSA as an antigen for 30 min., and histamine released into the medium was measured by […]). Inhibition of histamine release was calculated as following empirical formula 1; Percent inhibition=100×(A-B)/(A-C) [Empirical Formula 1] • A: Stimulated level (Histamine release with IgE-stimulation). • B: Suppressed level (Histamine release with IgE-stimulation and drug treatment). • C: Basal level (Histamine release without IgE-stimulation).

[2] = test system: ovalbumin-sensitized mouse; assay: Ovalbumin-sensitized mouse model: ovalbumin-specific IgE, IgG1, IgG2a, IgG2b in serum (ELISA); type: in vivo; details: BALB/c, oral 11 days, extract 300 μg/mouse/day, dexamethasone 10 μg/mouse/day
Experimental: The ovalbumin-sensitized mouse model is commonly used as animal model of allergy. Female BALB/c mice, aged 6 weeks (Seoul national university animal experimental center) were adapted to the environment for 7 days. At the time of 7 weeks after birth, 100 μl of emulsion, mixed 25 μg of ovalbumin (chicken egg albumin, crude grade V, Sigma Co., Ltd.) with 2.25 mg of aluminum hydroxide (ImujectAlum, Pierce Co., Ltd.) was injected into mouse peritoneal cavity and 14 days after, it was injected once more for boosting.
And then 30 mice were divided into 3 groups and each group was orally administered with the hardy kiwifruit water extract of Example 1-1 (300 μg/mouse/day), dexamethasone (10 μg/mouse/day), or drinking water (100 μg/mouse/day) for 11 days, respectively. On the 25th day, mice were sacrificed and blood serum and spleen was collected therefrom.
In serum collected in Example 2-1, the serum levels of ovalbumin-specific IgE, IgG1, IgG2a and IgG2b were measured by ELISA kits (PharMingen Co., Ltd).

Nc/Nga mouse = Nc/Nga mouse model of atopic dermatitis: scratching and serum IgE, IgG1, IgG2a; type: in vivo; details: oral 8 weeks, extract 300 μg/mouse/day, dexamethasone 10 μg/mouse/day, 16 weeks old
Experimental: To confirm anti-allergic effect of hardy kiwifruit extract in animals, Nc/Nga mouse model that has been widely used as an animal model for human atopic dermatitis study was employed.
(§1) For experiment, 15 of Nc/Nga mice (7 weeks after birth, female) were divided into 3 groups and adapted to new circumstance for 1 week. Since 8 weeks after birth, the hardy kiwifruit extract (300 μg/mouse/day) prepared in example 1-1 as a treatment group had been orally administered and dexamethasone (10 μg/mouse/day) or drinking water (100 μg/mouse/day) as control groups had been orally administered for 8 weeks. To compare the progress of dermatitis symptom, the scratching frequency of mouse (the time spent scratching during 20 min-observation) was measured when mice is grown at the age of 12 and 14 weeks. 16 weeks old mouse was sacrificed and the quantity of IgE, IgG1 and IgG2a level in serum were measured by ELISA method. Also, to compare the production of Th1/Th2 cytokines, splenocyte was prepared by conventional method from each mouse, transferred into 24-well plate (5×10^6 cells/ml/well) and incubated with ConA (1 μg/ml) for 3 days and then the levels of IL-4, IL-5, IL-12, and Interferon-γ were measured by ELISA method.

[3] = test system: splenocytes of ovalbumin-sensitized mouse; assay: Ovalbumin-sensitized mouse model: expression of cytokines by splenocytes re-stimulated with ovalbumin (ELISA); type: in vivo; details: splenocytes of OVA-stimulated mouse, ovalbumin 100 μg/ml, 3 days
Experimental: The ovalbumin-sensitized mouse model is commonly used as animal model of allergy. Female BALB/c mice, aged 6 weeks (Seoul national university animal experimental center) were adapted to the environment for 7 days.
On the 25th day, mice were sacrificed and blood serum and spleen was collected therefrom.
Each prepared splenocytes was pooled and homogenized under an aseptic condition.
Splenocytes prepared as above were inoculated in 24-well plate (5×10^6 cell/ml/well), treated with 100 μg/ml of ovalbumin, and incubated at 37° C. under an atmosphere containing 5% CO2 for 3 days. After cultivation was finished, a culture solution was gathered and then the concentration of cytokines (IL-4, IL-5, IL-12 and interferon-γ) related to allergy were measured by commercial ELISA kits.

U266B1 cell line = assay: Inhibition of IgE production in LPS-stimulated U266B1 cell line (ELISA); type: cell-based, human; details: 7 days
Experimental: To confirm the inhibitory effect of hardy kiwifruit extraction on IgE production, U266B1 cell (lymphoblastoma cell line) was used. U266B1 is cell line of human B cell, which produces IgE.
U266B1 cells (American Type Culture Collection, Manassas, Va.) was cultured at 37° C. under 5% CO2 circumstances in 24-well culture plate containing RPMI-1640 medium (15% FBS, 2 mM L-glutamine, 10 mM HEPES, 1 mM sodium pyruvate, 50 μg streptomycin and 100 U/ml penicillin). […] Control was treated with 2 μM dexamethasone or medium (RPMI-1640). After treatment, cells were cultured for 7 days and IgE concentration of medium was measured by ELISA kit (PharMingen; San Diego, Calif.).
Silica gel column chromatography fraction [1], [2], [3] and [4] were treated to U266B1 cell line (at 10 μg/ml).

[4] = test system: splenocytes of Nc/Nga mouse; assay: Nc/Nga mouse model: Th1/Th2 cytokine production by ConA-stimulated splenocytes; type: in vivo; details: ConA 1 μg/ml, 3 days
Experimental: as §1, with “Since 8 weeks after birth, the hardy kiwifruit extract (300 μg/mouse/day) prepared in example 1-1 as a treatment group had been orally administered and dexamethasone (10 μg/mouse/day) or drinking water (100 μg/mouse/day) as control groups had been orally administered for 8 weeks.” left out

[5] = test system: edema induced by arachidonic acid in the ears of mice; assay: Edema induced by arachidonic acid in the ears of mice; type: in vivo; details: BALB/c, p.o. 1 hour before arachidonic acid, extract 200 mg/kg, indomethacin 10 mg/kg
Experimental: 15 mice (8 week old male BALB/c) were fasted for 18 hours with free access to water and divided into 3 groups. Inflammation was induced by topical application of arachidonic acid (0.5 mg/20 μl acetone) to the right ear of each mouse. The left ear was used as a negative control and received the vehicle (20 μl acetone). The hardy kiwifruit extract (200 mg/kg in water) was administered p.o. 1 hour prior to arachidonic acid application. The positive control group received indomethacin (10 mg/kg, p.o.) 1 hour before arachidonic acid application. Inflammation was followed for 1 hour and thereafter the animals were sacrificed. A section of 6 mm diameter disc from each ear was obtained and weighed. The edema index was assessed using the increase in the weight of the treated right ear punch biopsy over that of the untreated left ear.

## O=C(O)c1cc(=O)c2c(OCC(O)COc3cccc4oc(C(=O)O)cc(=O)c34)cccc2o1 [Cromolyn]
[1]
  inhibition at 100 µM: 52 ± 13%

## C[C@@H]1C[C@H]2[C@@H]3CCC4=CC(=O)C=C[C@]4(C)[C@@]3(F)[C@@H](O)C[C@]2(C)[C@@]1(O)C(=O)CO [Dexamethasone, dexamethasone]
[2]; normal 1.0, drinking water 1.4, the values are: IgG2b relative to normal mice
  ovalbumin-specific IgG2b in serum: 1.2 ± 0.1
[2]; normal 1.0, drinking water 2.1, the values are: IgG2a relative to normal mice
  ovalbumin-specific IgG2a in serum: 1.9 ± 0.4
[2]; normal 1.0, drinking water 5.1, the values are: IgG1 relative to normal mice
  ovalbumin-specific IgG1 in serum: 3.1 ± 0.3
[2]; normal 1.0, drinking water 7.6, the values are: IgE relative to normal mice
  ovalbumin-specific IgE in serum: 2 ± 0.6
Nc/Nga mouse; drinking water 177.5
  IgG2a in serum: 148.0 ± 14.8 pg/mL
Nc/Nga mouse; drinking water 242.2
  IgG1 in serum: 247.3 ± 10.8 pg/mL
Nc/Nga mouse; drinking water 1572.9
  IgE in serum: 130.0 ± 55.3 pg/mL
[3]; drinking water 159.5, normal mouse 21.6
  IL-4: 23.2 ± 8.7 pg/mL
[3]; drinking water 906.2, normal mouse 1626.0
  IL-12: 297.7 ± 16.4 pg/mL
[3]; drinking water 1016.0, normal mouse 14.1
  Interferon-γ: 470.5 ± 38.6 pg/mL
[3]; drinking water 2573.6, normal mouse 0.5
  IL-5: 884.1 ± 80.7 pg/mL
U266B1 cell line; U266B1, LPS 2 μg/ml, extracts 100 μg/ml, dexamethasone 2 μM, LPS+medium 392.9, no LPS 187.8
  IgE (IU/ml): 203.6 ± 30.9 IU/ml
U266B1 cell line; U266B1, LPS stimulation, fractions at 30 μg/ml, LPS+medium 212.5, no LPS 117.4
  IgE (IU/ml): 138.9 ± 2.1 IU/ml
U266B1 cell line; U266B1, LPS stimulation, silica gel fractions at 10 μg/ml, LPS+medium 540.4, no LPS 379.7
  IgE (IU/ml): 277.6 ± 12.4 IU/ml
[4]; drinking water 151.9
  IL-4: 42.7 ± 19.4 pg/mL
[4]; drinking water 778.3
  IL-5: 646.5 ± 51.7 pg/mL
[4]; drinking water 1925.7
  IL-12: 201.2 ± 12.1 pg/mL
[4]; drinking water 10407.5
  Interferon-γ: 10096.4 ± 192.4 pg/mL

## COc1ccc2c(c1)c(CC(=O)O)c(C)n2C(=O)c1ccc(Cl)cc1 [Indomethacin, indomethacin]
[5]; control 7.2 ± 1.1
  Index of edema: 1.3 ± 0.3 mg
[5]; Mus musculus, po, read-out: Inhibition rate (%)
  inhibition at 10 mg/kg: 81.9%
